Our source for the EC50 values is patent US20240246937A1 (MERCK SHARP & DOHME LLC, priority 2021, published 2024).

Molecules are shown by their SMILES.

recombinant IL4I1, sequence (Q96RQ9 22-567): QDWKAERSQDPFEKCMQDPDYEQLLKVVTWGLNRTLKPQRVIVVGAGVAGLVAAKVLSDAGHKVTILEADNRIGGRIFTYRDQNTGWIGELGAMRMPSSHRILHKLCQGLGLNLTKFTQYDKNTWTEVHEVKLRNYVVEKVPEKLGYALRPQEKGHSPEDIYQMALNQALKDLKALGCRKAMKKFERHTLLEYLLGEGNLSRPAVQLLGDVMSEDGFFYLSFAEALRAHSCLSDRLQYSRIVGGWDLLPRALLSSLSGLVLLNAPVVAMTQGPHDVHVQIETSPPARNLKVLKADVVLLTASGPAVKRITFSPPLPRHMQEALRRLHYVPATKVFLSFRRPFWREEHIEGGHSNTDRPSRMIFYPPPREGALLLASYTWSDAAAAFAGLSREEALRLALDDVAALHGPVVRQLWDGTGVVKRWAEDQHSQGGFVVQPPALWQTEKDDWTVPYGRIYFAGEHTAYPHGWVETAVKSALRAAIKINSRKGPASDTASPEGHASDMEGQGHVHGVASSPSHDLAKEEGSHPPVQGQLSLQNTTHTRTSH

The target of the experiment is recombinant IL4I1 (Homo sapiens (Human), UniProt Q96RQ9). Briefly: IL4I1 Enzymatic Assay (Amplex Red/HRP coupled fluorescence detection of H2O2). It counts as biochemical. The following applies: 240 min; recombinant IL4I1, four-hour pre-incubation with compound. In outline:
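Recombinant human IL4I1 (1 nM final) pre-incubated 4 h with compound at ambient temperature in 50 mM Hepes pH 7.0, 0.005% Tween20. Started with 1 mM each Phe/Tyr/Trp plus Amplex Red/HRP; H2O2-derived resorufin fluorescence read after 120 min; EC50 from ten-point 1:3 titration, four-parameter fit.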
Take `CC(c1cnc(-c2ccccc2)cn1)N1CCN(C2CCC2)C(=O)C1=O` (stereo not drawn) [Example 108, 1-cyclobutyl-4-(1-(5-phenylpyrazin-2-yl)ethyl)piperazine-2,3-dione]: the EC50 was 20 nM.
As for `O=C1C(=O)N(C2CCC2)CCN1Cc1ccc(-n2ccnn2)nc1` [Example 109, 1-((6-(1H-1,2,3-triazol-1-yl)pyridin-3-yl)methyl)-4-cyclobutylpiperazine-2,3-dione], the EC50 was 24 nM.
The same measure for `O=C1C(=O)N(C23CC(C2)C3)CCN1Cc1cnc(-c2ccccc2)nc1` [Example 110, 1-(bicyclo[1.1.1]pentan-1-yl)-4-((2-phenylpyrimidin-5-yl)methyl)piperazine-2,3-dione]: 27 nM; for `O=c1c(=O)n(C23CC(C2)C3)ccn1Cc1cnc(-c2ccccc2)nc1` [Example 111, 1-(bicyclo[1.1.1]pentan-1-yl)-4-((2-phenylpyrimidin-5-yl)methyl)-1,4-dihydropyrazine-2,3-dione]: 8 nM.
Regarding `O=C1C(=O)N(C23CC(C2)C3)CCN1Cc1cnc(-c2ccccc2)cn1` [Example 112, 1-(bicyclo[1.1.1]pentan-1-yl)-4-((5-phenylpyrazin-2-yl)methyl)piperazine-2,3-dione], the EC50 was 7 nM.
On to `O=C1C(=O)N(C2CCC2)CCN1Cc1ccc(-n2nccn2)nc1` [Example 113, 1-((6-(2H-1,2,3-triazol-2-yl)pyridin-3-yl)methyl)-4-cyclobutylpiperazine-2,3-dione], for which the EC50 is 15 nM.
The figure for `O=C1C(=O)N(C23CC(C2)C3)CCN1Cc1ccc(-c2ccccc2)cn1` [Example 114, 1-(bicyclo[1.1.1]pentan-1-yl)-4-((5-phenylpyridin-2-yl)methyl)piperazine-2,3-dione] is 7 nM.
Regarding `O=c1c(=O)n(C23CC(C2)C3)ccn1Cc1ccc(-c2ccccc2)cn1` [Example 115, 1-(bicyclo[1.1.1]pentan-1-yl)-4-((5-phenylpyridin-2-yl)methyl)-1,4-dihydropyrazine-2,3-dione], the EC50 was determined as 4 nM.
Turning to `O=C1C(=O)N(C23CC(C2)C3)CCN1Cc1ccc(-n2nccn2)nc1` [Example 116, 1-((6-(2H-1,2,3-triazol-2-yl)pyridin-3-yl)methyl)-4-(bicyclo[1.1.1]pentan-1-yl)piperazine-2,3-dione], the EC50 amounted to 17 nM.
Regarding `O=C1C(=O)N(C23CC(C2)C3)CCN1Cc1ccc(-n2ccnn2)nc1` [Example 117, 1-((6-(1H-1,2,3-triazol-1-yl)pyridin-3-yl)methyl)-4-(bicyclo[1.1.1]pentan-1-yl)piperazine-2,3-dione], the EC50 stood at 14 nM.
The figure for `O=C1C(=O)N(C2CCC2)CCN1Cc1cnc(-c2ccccc2)cn1` [Example 118, 1-cyclobutyl-4-((5-phenylpyrazin-2-yl)methyl)piperazine-2,3-dione] is 7 nM; for `O=C1C(=O)N(C2CCCC2)CCN1CCc1cc(-c2ccccc2)on1` [Example 119, 1-cyclopentyl-4-(2-(5-phenylisoxazol-3-yl)ethyl)piperazine-2,3-dione] it is 4 nM; for `O=c1c(=O)n(C23CC(C2)C3)ccn1Cc1nnc(-c2ccccc2)s1` [Example 120, 1-(bicyclo[1.1.1]pentan-1-yl)-4-((5-phenyl-1,3,4-thiadiazol-2-yl)methyl)-1,4-dihydropyrazine-2,3-dione] it is 3 nM.
The same measure for `O=C1C(=O)N(C23CC(C2)C3)CCN1Cc1nnc(-c2ccccc2)s1` [Example 121, 1-(bicyclo[1.1.1]pentan-1-yl)-4-((5-phenyl-1,3,4-thiadiazol-2-yl)methyl)piperazine-2,3-dione]: 7 nM.
The same measure for `O=C1C(=O)N(C23CC(C2)C3)CCN1Cc1ccc(-c2ccccc2)nc1` [Example 122, 1-(bicyclo[1.1.1]pentan-1-yl)-4-((6-phenylpyridin-3-yl)methyl)piperazine-2,3-dione]: 6 nM; for `O=C1C(=O)N(C2CCC2)CCN1Cc1cnc(-c2ccccc2)c(F)c1` [Example 123, 1-cyclobutyl-4-((5-fluoro-6-phenylpyridin-3-yl)methyl)piperazine-2,3-dione]: 5 nM; for `O=c1c(=O)n(C2CCCC2)ccn1Cc1nnc(-c2ccccc2)s1` [Example 124, 1-cyclopentyl-4-((5-phenyl-1,3,4-thiadiazol-2-yl)methyl)-1,4-dihydropyrazine-2,3-dione]: 7 nM.
As to `O=c1c(=O)n([C@H]2C[C@H]3C[C@H]3C2)ccn1Cc1cnc(-c2ccccc2)cn1` [Example 125], the EC50 was 3 nM.
The same measure for `O=c1c(=O)n(C2CCCC2)ccn1Cc1cnc(-c2ccccc2)cn1` [Example 126, 1-cyclopentyl-4-((5-phenylpyrazin-2-yl)methyl)-1,4-dihydropyrazine-2,3-dione]: 3 nM; for `O=c1c(=O)n(C2CCC2)ccn1Cc1cnc(-c2ccccc2)cn1` [Example 127, 1-cyclobutyl-4-((5-phenylpyrazin-2-yl)methyl)-1,4-dihydropyrazine-2,3-dione]: 3 nM; for `O=c1c(=O)n([C@H]2C[C@H]3C[C@H]3C2)ccn1Cc1cnc(-c2ccccc2)c(F)c1` [Example 128, 1-((cis)-bicyclo[3.1.0]hexan-3-yl)-4-((5-fluoro-6-phenylpyridin-3-yl)methyl)-1,4-dihydropyrazine-2,3-dione]: 2 nM.
The figure for `O=C1C(=O)N([C@H]2C[C@H]3C[C@H]3C2)CCN1Cc1cnc(-c2ccccc2)cn1` [Example 129, 1-((cis)-bicyclo[3.1.0]hexan-3-yl)-4-((5-phenylpyrazin-2-yl)methyl)piperazine-2,3-dione] is 6 nM; for `O=c1c(=O)n(C2CCC2)ccn1Cc1cnc(-c2ccccc2)nc1` [Example 130, 1-cyclobutyl-4-((2-phenylpyrimidin-5-yl)methyl)-1,4-dihydropyrazine-2,3-dione] it is 5 nM; for `O=C1C(=O)N([C@H]2C[C@H]3C[C@H]3C2)CCN1Cc1cnc(-c2ccccc2)c(F)c1` [Example 131, 1-((cis)-bicyclo[3.1.0]hexan-3-yl)-4-((5-fluoro-6-phenylpyridin-3-yl)methyl)piperazine-2,3-dione] it is 9 nM.
Turning to `O=C1C(=O)N(C2CCCC2)CCN1CC12CC(c3ccccc3)(C1)C2` [Example 132, 1-cyclopentyl-4-((3-phenylbicyclo[1.1.1]pentan-1-yl)methyl)piperazine-2,3-dione], the EC50 was 15 nM.
The same measure for `O=C1C(=O)N(C2CCC2)CCN1Cc1nnc(-c2ccccc2)s1` [Example 135, 1-cyclobutyl-4-((5-phenyl-1,3,4-thiadiazol-2-yl)methyl)piperazine-2,3-dione]: 6 nM; for `O=C1C(=O)N(C2CCC2)CCN1Cc1ccc(-n2nccn2)cn1` [Example 136, 1-((5-(2H-1,2,3-triazol-2-yl)pyridin-2-yl)methyl)-4-cyclobutylpiperazine-2,3-dione]: 20 nM; for `O=c1c(=O)n(C2CCC2)ccn1Cc1ccc(-c2ccccc2)nn1` [Example 137, 1-cyclobutyl-4-((6-phenylpyridazin-3-yl)methyl)-1,4-dihydropyrazine-2,3-dione]: 6 nM.
In the case of `O=C1C(=O)N(C2CCC2)CCN1Cc1cc(-c2ccccn2)on1` [Example 138, 1-cyclobutyl-4-((5-(pyridin-2-yl)isoxazol-3-yl)methyl)piperazine-2,3-dione], the EC50 turned out to be 12 nM.
Take `O=C1C(=O)N(C2CCCC2)CCN1Cc1ncc(-c2nccs2)cc1F` [Example 139, 1-cyclopentyl-4-((3-fluoro-5-(thiazol-2-yl)pyridin-2-yl)methyl)piperazine-2,3-dione]: the EC50 is 26 nM.
Regarding `O=C1C(=O)N(C2CCCC2)CCN1Cc1ccc(-n2nccn2)cc1` [Example 140, 1-(4-(2H-1,2,3-triazol-2-yl)benzyl)-4-cyclopentylpiperazine-2,3-dione], the EC50 is 36 nM.
With `O=C1C(=O)N(C2CC(c3ccccc3)C2)CCN1Cc1ncc(-c2ccccc2)cn1` (stereo not drawn) [Example 141, 1-(3-phenylcyclobutyl)-4-((5-phenylpyrimidin-2-yl)methyl)piperazine-2,3-dione], the EC50 came out at 23 nM.
The same measure for `O=C1C(=O)N(C2CC(c3ccccc3)C2)CCN1Cc1ccc(-c2ccccc2)nc1` (stereo not drawn) [Example 142, 1-(3-phenylcyclobutyl)-4-((6-phenylpyridin-3-yl)methyl)piperazine-2,3-dione]: 3 nM.
`O=c1c(=O)n(C2CCC2)ccn1Cc1ncc(-c2ccccc2)cn1` [Example 143, 1-cyclobutyl-4-((5-phenylpyrimidin-2-yl)methyl)-1,4-dihydropyrazine-2,3-dione]: the EC50 was determined as 15 nM.
The same measure for `O=c1c(=O)n(C23CC(C2)C3)ccn1Cc1nnc(-c2cccc(F)c2)s1` [Example 144, 1-(bicyclo[1.1.1]pentan-1-yl)-4-((5-(3-fluorophenyl)-1,3,4-thiadiazol-2-yl)methyl)-1,4-dihydropyrazine-2,3-dione]: 2 nM; for `O=c1c(=O)n(C2CCCC2)ccn1Cc1nnc(-c2cccc(F)c2)s1` [Example 145, 1-cyclopentyl-4-((5-(3-fluorophenyl)-1,3,4-thiadiazol-2-yl)methyl)-1,4-dihydropyrazine-2,3-dione]: 1 nM; for `O=C1C(=O)N(C23CC(C2)C3)CCN1Cc1cc(-c2ccccc2)on1` [Example 146, 1-(bicyclo[1.1.1]pentan-1-yl)-4-((5-phenylisoxazol-3-yl)methyl)piperazine-2,3-dione]: 3 nM.
For `O=c1c(=O)n(C23CC(C2)C3)ccn1Cc1cc(-c2ccccc2)on1` [Example 147, 1-(bicyclo[1.1.1]pentan-1-yl)-4-((5-phenylisoxazol-3-yl)methyl)-1,4-dihydropyrazine-2,3-dione], the EC50 was determined as 2 nM.
The figure for `O=C1C(=O)N(C2CCC2)CCN1Cc1cc(-c2ccccc2)no1` [Example 148, 1-cyclobutyl-4-((3-phenylisoxazol-5-yl)methyl)piperazine-2,3-dione] is 2 nM.
